Consider 24 molecules from patent US11173145B2, “Compounds useful as inhibitors of indoleamine 2,3-dioxygenase and/or tryptophan dioxygenase” (Board of Regents, The University of Texas System, priority 2017, dated 2021).

Where only a bound is given, the exact number is not on record here.

Assay [1] addresses T1, mouse IDO1 (Mus musculus, UniProt P28776).
T1 construct: The murine PANC02 pancreatic ductal adenocarcinoma cell line was routinely maintained in DMEM media; endogenous in cells; host or cells: PANC02 murine pancreatic ductal adenocarcinoma cells, induced with mouse IFNgamma
In words: Mouse IDO1 cell-based assay (PANC02 cells, mouse IFNgamma-induced, N-formylkynurenine/L-tryptophan by RFMS). The conditions noted are these: 30 ng/mL mouse IFNgamma, 48 hours. On the procedure: The murine PANC02 pancreatic ductal adenocarcinoma cell line was routinely maintained in DMEM media containing 10% FBS. Cells (3,000/well) were seeded onto a 384 well plate in 50 μl of media and incubated at 37° C., 5% CO2 overnight. Cell media was aspirated, fresh media containing 30 ng/mL mouse IFNgamma (Gibco Life Technologies, cat #PMC4031) was added, and cells were incubated in absence or presence of various concentrations of compounds (final 0.5% DMSO) for 48 hours at 37° C., 5% CO2. Aliquots of the cell conditioned media was removed from the cell plate, and mixed with equal volume of 200 mM ZnSO4 to precipitate media containing protein. Two volumes of acetonitrile were added by mixing, and samples were then centrifuged at 2250G for 20 minutes at 4° C. Aliquots of the supernatant were diluted 1:10 in 0.1% formic acid containing 3 μM of deuterated Tryptophan as an internal standard.
Samples were analyzed via RFMS to quantify N-Formyl Kynurenine (AUC) and L-tryptophan (AUC). A C18 cartridge was used with mobile phases of 0.1% Formic Acid and 80% ACN/0.1% Formic Acid under isocratic conditions. Dose-response curves were analyzed using IC50 regression curve fitting (GeneData Screener). Curves were plotted as percent of control and normalized by high controls without inhibitor (100%), and low controls (0%) containing 1 μM of epacadostat. Cell viability was also assessed using the Cell Titer Glo Kit (Promega) following manufacture recommendation.

Assay [2] deals with T2, IDO1 (Homo sapiens, UniProt P14902).
T2 construct: endogenous in cells; host or cells: HeLa cells (ATCC), IFNgamma-induced
T2 sequence (P14902 whole entry): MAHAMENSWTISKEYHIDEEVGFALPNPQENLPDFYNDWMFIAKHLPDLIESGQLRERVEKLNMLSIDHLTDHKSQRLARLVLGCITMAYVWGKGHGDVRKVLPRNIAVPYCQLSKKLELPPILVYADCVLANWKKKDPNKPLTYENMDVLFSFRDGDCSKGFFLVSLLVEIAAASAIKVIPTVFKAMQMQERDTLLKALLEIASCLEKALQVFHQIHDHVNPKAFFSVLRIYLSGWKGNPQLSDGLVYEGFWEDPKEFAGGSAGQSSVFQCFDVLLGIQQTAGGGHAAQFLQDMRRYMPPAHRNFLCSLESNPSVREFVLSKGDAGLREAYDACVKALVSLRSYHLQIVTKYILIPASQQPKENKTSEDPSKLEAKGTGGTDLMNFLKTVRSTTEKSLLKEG
As to the kind of experiment: IDO1 cell-based assay (HeLa cells, IFNgamma-induced, N-formylkynurenine/L-tryptophan by RFMS). The settings on record: 10 ng/mL IFNgamma, 24 hours. The method, boiled down:
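HeLa cells stimulated with 10 ng/mL IFNgamma and exposed to compound (0.5% DMSO final) for 24 h at 37 °C. Conditioned media deproteinized, then N-formylkynurenine and L-tryptophan quantified by RapidFire MS with deuterated tryptophan internal standard; IC50 by curve fitting. Viability checked by CellTiter-Glo.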

T1 sequence (P28776 whole entry): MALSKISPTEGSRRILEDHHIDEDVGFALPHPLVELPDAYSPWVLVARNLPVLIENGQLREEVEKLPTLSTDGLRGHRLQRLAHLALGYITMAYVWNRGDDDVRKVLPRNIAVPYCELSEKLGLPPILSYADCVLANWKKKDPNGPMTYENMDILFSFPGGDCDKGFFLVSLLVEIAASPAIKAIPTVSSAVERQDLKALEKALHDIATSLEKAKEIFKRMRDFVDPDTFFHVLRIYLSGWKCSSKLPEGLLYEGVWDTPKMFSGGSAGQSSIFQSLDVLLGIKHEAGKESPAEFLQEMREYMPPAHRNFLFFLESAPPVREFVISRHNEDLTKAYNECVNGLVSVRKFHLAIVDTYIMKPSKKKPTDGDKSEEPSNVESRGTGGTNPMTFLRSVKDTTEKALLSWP

Regarding `CCC(NC(=O)c1ccc(Cl)cc1)[C@H]1[C@@H]2C[C@@H](n3cc(C4CN(C(=O)OC(C)(C)C)C4)nn3)C[C@@H]21` (stereo partly drawn) [Compound 233, tert-butyl 3-(1-((1R,3s,5S,6r)-6-(1-(4-chlorobenzamido)propyl)bicyclo[3.1.0]hexan-3-yl)-1H-1,2,3-triazol-4-yl)azetidine-1-carboxylate], the IC50 is more than 5 µM in assay [1] and 2 to 5 µM in assay [2].

Take `CC[C@@H](NC(=O)c1ccc(Cl)cc1)[C@H]1[C@@H]2C[C@@H](n3cnc4ccc(F)cc43)C[C@@H]21` [Compound 247, 4-chloro-N—((R)-1-((1R,3S,5S, 6r)-3-(6-fluoro-1H-benzo[d]imidazol-1-yl)bicyclo[3.1.0]hexan-6-yl)propyl)benzamide]: the IC50 in assay [1] was less than 0.5 µM.

For the molecule `CCC(NC(=O)c1ccc(Cl)cc1)[C@H]1[C@@H]2C[C@@H](n3ccnc3C)C[C@@H]21` (stereo partly drawn) [Compound 201, 4-chloro-N-(1-((1R,3s,5S,6r)-3-(2-methyl-1H-imidazol-1-yl)bicyclo[3.1.0]hexan-6-yl)propyl)benzamide], the IC50 in assay [1] was 2 to 5 µM; in assay [2] it was less than 0.2 µM.

Take `CCC(NC(=O)c1ccc(Cl)cc1)[C@H]1[C@@H]2C[C@@H](n3ncc4cccc(F)c43)C[C@@H]21` (stereo partly drawn) [Compound 206, 4-chloro-N-(1-((1R,3s,5S,6r)-3-(7-fluoro-1H-indazol-1-yl)bicyclo[3.1.0]hexan-6-yl)propyl)benzamide]: the figures for the IC50 in assay [1] and in assay [2] were 0.5 to 2 µM and less than 0.2 µM, respectively.

`CCC(NC(=O)c1ccc(Cl)cc1)[C@H]1[C@@H]2C[C@@H](n3ncc4ccc(F)cc43)C[C@@H]21` (stereo partly drawn) [Compound 162, 4-chloro-N-(1-((1R,3s,5S,6r)-3-(6-fluoro-1H-indazol-1-yl)bicyclo[3.1.0]hexan-6-yl)propyl)benzamide]: the results for the IC50 in assay [1] and in assay [2] were 0.5 to 2 µM and less than 0.2 µM, respectively.

Regarding `CCc1cn([C@@H]2C[C@@H]3[C@H](C2)[C@H]3C(CC)NC(=O)c2ccc(Cl)cc2)nn1` (stereo partly drawn) [Compound 167, 4-chloro-N-(1-((1R,3s,5S,6r)-3-(4-ethyl-1H-1,2,3-triazol-1-yl)bicyclo[3.1.0]hexan-6-yl)propyl)benzamide], the IC50 was less than 0.5 µM in assay [1] and less than 0.2 µM in assay [2].

Take `CCC(NC(=O)c1ccc(Cl)cc1)[C@H]1[C@@H]2C[C@@H](NC(C(=O)NC)c3ccccc3)C[C@@H]21` (stereo partly drawn) [Compound 224, 4-chloro-N-(1-((1R,3s,5S,6r)-3-((2-(methylamino)-2-oxo-1-phenylethyl)amino)bicyclo[3.1.0]hexan-6-yl)propyl)benzamide]: the IC50 in assay [1] is more than 5 µM; in assay [2], 2 to 5 µM.

In turn, `CC[C@H](NC(=O)c1ccc(Cl)cc1)[C@H]1[C@@H]2C[C@@H](n3cnc4ccc(F)cc43)C[C@@H]21` [Compound 248, 4-chloro-N—((S)-1-((1R,3S,5S,6r)-3-(6-fluoro-1H-benzo[d]imidazol-1-yl)bicyclo[3.1.0]hexan-6-yl)propyl)benzamide] displayed an IC50 in assay [1] of less than 0.5 µM.

Regarding `CCC(NC(=O)c1ccc(Cl)cc1)[C@H]1[C@@H]2C[C@@H](n3ccc4ncnc-4c3)C[C@@H]21` (stereo partly drawn) [Compound 198, N-(1-((1R,3s,5S,6r)-3-(5H-imidazo[4,5-c]pyridin-5-yl)bicyclo[3.1.0]hexan-6-yl)propyl)-4-chlorobenzamide], the IC50 was 0.5 to 2 µM in assay [1] and less than 0.2 µM in assay [2].

As for `CCC(NC(=O)c1ccc(Cl)cc1)[C@@H]1[C@H]2C=C(c3ncnc4cc(F)ccc34)C[C@H]21` (stereo partly drawn) [Compound 255, 4-chloro-N-(1-((1R,5R,6S)-3-(7-fluoroquinazolin-4-yl)bicyclo[3.1.0]hex-2-en-6-yl)propyl)benzamide], the IC50 lay in the range of 2 to 5 µM in assay [1] and 0.2 to 2 µM in assay [2].

For the molecule `CCC(NC(=O)c1ccc(Cl)cc1)[C@H]1[C@@H]2C[C@@H](n3cc(N4C(=O)c5ccccc5C4=O)nn3)C[C@@H]21` (stereo partly drawn) [Compound 232, 4-chloro-N-(1-((1R,3s,5S,6r)-3-(4-(1,3-dioxoisoindolin-2-yl)-1H-1,2,3-triazol-1-yl)bicyclo[3.1.0]hexan-6-yl)propyl)benzamide], the IC50 in assay [1] and in assay [2] was more than 5 µM each time.

Turning to `CCC(NC(=O)c1ccc(Cl)cc1)[C@H]1[C@@H]2C[C@@H](n3cc(N(C)C)nn3)C[C@@H]21` (stereo partly drawn) [Compound 238, 4-chloro-N-(1-((1R,3s,5S,6r)-3-(4-(dimethylamino)-1H-1,2,3-triazol-1-yl)bicyclo[3.1.0]hexan-6-yl)propyl)benzamide], the IC50 was less than 0.5 µM in assay [1] and less than 0.2 µM in assay [2].

With `CCC(NC(=O)c1ccc(Cl)cc1)[C@H]1[C@@H]2C[C@@H](n3cc(NC(C)=O)nn3)C[C@@H]21` (stereo partly drawn) [Compound 256, N-(1-((1R,3s,5S,6r)-3-(4-acetamido-1H-1,2,3-triazol-1-yl)bicyclo[3.1.0]hexan-6-yl)propyl)-4-chlorobenzamide], the IC50 in assay [1] and in assay [2] was more than 5 µM in each case.

As to `CCC(NC(=O)c1ccc(Cl)cc1)[C@H]1[C@@H]2C[C@@H](n3ncnc3C3CC3)C[C@@H]21` (stereo partly drawn) [Compound 258, 4-chloro-N-(1-((1R,3s,5S,6r)-3-(5-cyclopropyl-1H-1,2,4-triazol-1-yl)bicyclo[3.1.0]hexan-6-yl)propyl)benzamide], the values for the IC50 in assay [1] and in assay [2] were 2 to 5 µM and 0.2 to 2 µM, respectively.

In the case of `CCC(NC(=O)c1ccc(Cl)cc1)[C@H]1[C@@H]2C[C@@H](N3Cc4ccccc4C3=O)C[C@@H]21` (stereo partly drawn) [Compound 175, 4-chloro-N-(1-((1R,3s,5S,6r)-3-(1-oxoisoindolin-2-yl)bicyclo[3.1.0]hexan-6-yl)propyl)benzamide], the IC50 in assay [1] is 0.5 to 2 µM; in assay [2], less than 0.2 µM.

On to `CCC(NC(=O)c1ccc(Cl)cc1)[C@H]1[C@@H]2C[C@@H](n3cc4ccc(F)cc4n3)C[C@@H]21` (stereo partly drawn) [Compound 163, 4-chloro-N-(1-((1R,3s,5S,6r)-3-(6-fluoro-2H-indazol-2-yl)bicyclo[3.1.0]hexan-6-yl)propyl)benzamide], for which the IC50 was less than 0.5 µM in assay [1] and less than 0.2 µM in assay [2].

For the molecule `CCC(NC(=O)c1ccc(Cl)cc1)[C@H]1[C@@H]2C[C@@H](C(C(=O)O)c3ccccc3)C[C@@H]21` (stereo partly drawn) [Compound 228, 2-((1R,3s, 5S, 6r)-6-(1-(4-chlorobenzamido)propyl)bicyclo[3.1.0]hexan-3-yl)-2-phenylacetic acid], the IC50 in assay [1] and in assay [2] was 2 to 5 µM throughout.

For the molecule `CCC(NC(=O)c1ccc(Cl)cc1)[C@H]1[C@@H]2C[C@@H](N3CCOC3=O)C[C@@H]21` (stereo partly drawn) [Compound 185, 4-chloro-N-(1-((1R,3s,5S,6r)-3-(2-oxooxazolidin-3-yl)bicyclo[3.1.0]hexan-6-yl)propyl)benzamide], the IC50 in assay [1] was in the range of 2 to 5 µM; in assay [2], 0.2 to 2 µM.

Regarding `CCC(NC(=O)c1ccc(Cl)cc1)[C@H]1[C@@H]2C[C@@H](NC(=O)c3ncccc3Cl)C[C@@H]21` (stereo partly drawn) [Compound 218, 3-chloro-N-((1R,3s,5S,6r)-6-(1-(4-chlorobenzamido)propyl)bicyclo[3.1.0]hexan-3-yl)picolinamide], the figures for the IC50 in assay [1] and in assay [2] were 0.5 to 2 µM and less than 0.2 µM, respectively.

Consider `CCC(NC(=O)c1ccc(Cl)cc1)[C@H]1[C@@H]2C[C@@H](n3ccc4cc(F)ccc43)C[C@@H]21` (stereo partly drawn) [Compound 229, 4-chloro-N-(1-((1R,3s,5S,6r)-3-(5-fluoro-1H-indol-1-yl)bicyclo[3.1.0]hexan-6-yl)propyl)benzamide], for which the results for the IC50 in assay [1] and in assay [2] were less than 0.5 µM and less than 0.2 µM, respectively.

Regarding `CCC(NC(=O)c1ccc(Cl)cc1)[C@H]1[C@@H]2C[C@@H](n3cnc(-c4ccccc4)c3)C[C@@H]21` (stereo partly drawn) [Compound 200, 4-chloro-N-(1-((1R,3s,5S,6r)-3-(4-phenyl-1H-imidazol-1-yl)bicyclo[3.1.0]hexan-6-yl)propyl)benzamide], the IC50 in assay [1] is 0.5 to 2 µM; in assay [2], less than 0.2 µM.

On to `CCC(NC(=O)c1ccc(Cl)cc1)[C@H]1[C@@H]2C[C@@H](NC(=O)c3ccccn3)C[C@@H]21` (stereo partly drawn) [Compound 117, N-((1R,3s,5S,6r)-6-(1-(4-chlorobenzamido)propyl)bicyclo[3.1.0]hexan-3-yl)picolinamide], for which the IC50 is 2 to 5 µM in assay [1] and less than 0.2 µM in assay [2].

For `CCC(NC(=O)c1ccc(Cl)cc1)[C@H]1[C@@H]2C[C@@H](n3cnc4ccc(F)cc43)C[C@@H]21` (some centres unmarked) [Compound 125], in assay [1], the IC50 is less than 0.5 µM.

`CCC(NC(=O)c1ccc(Cl)cc1)[C@H]1[C@@H]2C[C@@H](n3cnc4ccncc43)C[C@@H]21` (stereo partly drawn) [Compound 197, N-(1-((1R,3s,5S,6r)-3-(3H-imidazo[4,5-c]pyridin-3-yl)bicyclo[3.1.0]hexan-6-yl)propyl)-4-chlorobenzamide]: in assay [1], the IC50 is more than 5 µM.
